Consider one compound from patent EP0162592B1, “Heterocyclic amino compounds” (GLAXO GROUP LIMITED, priority 1984, dated 1985).

Where a name gives a salt, the structure may show the parent alone. Bounds are passed on as bounds.

This test has as its system α1-adrenoreceptor. The test can be described thus: a1-Adrenoreceptor antagonist action: prevention of phenylephrine contractions in rat isolated anococcygeus muscle (Schild analysis). In kind it is cell-based. The conditions noted are these: agonist phenylephrine, KB = concentration shifting the agonist log10 (concentration)/response curve to the right by a factor of 2, read-out: KB value at a,-adrenoreceptors. On the procedure:
The a-adrenoreceptor-type selectivity of the compounds of general formula (I) is similarly assessed by measuring the ability to produce a parallel shift to the right of the logio (concentration)/response curve for the a,-adrenoreceptor agonist phenylephrine. The a,-adrenoreceptor-mediated responses of phenylephrine measured were contractions of the rat isolated anococcygeus muscle (Leighton, Butz & Parameter, Eur.J.Pharmac., 1979, 58 27-38).
Compounds were tested for their ability to prevent the action of α1-adrenoreceptor agonist phenylephrine in the rat isolated anococcygens muscle (Leighton, Butz & Parmeter, Eur. J. Pharmac., 1979 58 27-38). Antagonism of the effect of phenylephrine was quantified by measuring the parallel shift to the right of the phenylephrine log10 (concentration)/response curve in the presence of increasing concentrations of the test compound.
In (1) and (2) potency and competiveness of antagonism were determined by the method of Arunlakshana & Schild (Br. J. Pharmac. 1959, 14 48-58).

For orientation: Kb means the equilibrium dissociation constant of an antagonist, usually derived from a functional assay.

As for `c1ccc2c(c1)C[C@H]1CNC[C@@H]1O2` (racemic) [Example 2, (±)-trans-1,2,3,3a,9,9a-Hexahydro[1]benzopyrano[2,3-c]pyrrole, hydrochloride], the Kb is above 10 µM.
